The values below come from article PMC6152084, “Synthesis of New Hydrazone Derivatives for MAO Enzymes Inhibitory Activity” (Molecules : A Journal of Synthetic Chemistry and Natural …, 2017).

Structures are written as SMILES.

The target in data set [1] is T1, hMAO-A (Homo sapiens, UniProt P21397).
T1 construct: purchased Sigma-Aldrich (Steinheim, Germany)
T1 sequence (P21397 1-527): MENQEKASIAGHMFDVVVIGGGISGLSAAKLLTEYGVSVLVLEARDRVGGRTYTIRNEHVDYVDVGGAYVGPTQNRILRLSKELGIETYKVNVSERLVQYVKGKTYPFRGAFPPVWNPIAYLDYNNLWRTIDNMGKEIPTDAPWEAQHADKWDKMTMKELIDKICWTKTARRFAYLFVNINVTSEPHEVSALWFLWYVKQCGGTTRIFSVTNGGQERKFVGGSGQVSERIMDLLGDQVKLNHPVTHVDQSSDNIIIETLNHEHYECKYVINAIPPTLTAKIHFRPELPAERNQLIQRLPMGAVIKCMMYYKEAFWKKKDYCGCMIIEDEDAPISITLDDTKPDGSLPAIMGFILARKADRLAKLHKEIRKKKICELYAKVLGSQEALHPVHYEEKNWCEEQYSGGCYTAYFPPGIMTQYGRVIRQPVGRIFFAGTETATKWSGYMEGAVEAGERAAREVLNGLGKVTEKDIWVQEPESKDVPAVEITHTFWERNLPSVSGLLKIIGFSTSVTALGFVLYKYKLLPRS
The data set is described as follows: MAO-A inhibition assay (in vitro fluorometric Amplex Red method). The format is biochemical.

For data set [2], the target named is T2, hMAO-B (Homo sapiens, UniProt P27338).
T2 construct: purchased Sigma-Aldrich (Steinheim, Germany)
T2 sequence (P27338 1-520): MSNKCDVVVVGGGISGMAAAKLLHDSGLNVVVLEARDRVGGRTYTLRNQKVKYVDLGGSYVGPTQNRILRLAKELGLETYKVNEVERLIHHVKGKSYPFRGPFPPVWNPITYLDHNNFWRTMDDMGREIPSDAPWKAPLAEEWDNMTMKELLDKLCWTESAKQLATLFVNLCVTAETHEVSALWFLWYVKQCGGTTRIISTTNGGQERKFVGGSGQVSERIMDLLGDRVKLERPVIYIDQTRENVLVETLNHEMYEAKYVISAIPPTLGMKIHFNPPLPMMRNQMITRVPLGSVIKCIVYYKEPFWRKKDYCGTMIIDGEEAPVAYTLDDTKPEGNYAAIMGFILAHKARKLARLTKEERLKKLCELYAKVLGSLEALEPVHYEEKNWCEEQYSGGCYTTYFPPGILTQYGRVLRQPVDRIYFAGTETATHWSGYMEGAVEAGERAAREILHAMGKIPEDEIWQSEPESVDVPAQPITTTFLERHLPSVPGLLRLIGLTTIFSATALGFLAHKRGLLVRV
Nature of the data set: MAO-B inhibition assay (in vitro fluorometric Amplex Red method). The format is biochemical.

In turn, `C(=NNc1ccccc1)c1ccc(N2CCN(c3ccccc3)CC2)cc1` [Compound 2c, 1-(4-(4-Phenylpiperazine-1-yl)benzylidene)-2-phenylhydrazine] came in with a melting point of 149.4 to 160.9 °C. In addition, in data set [1] (10^−3 M), 1000 µM produced 70.9 ± 1.06% inhibition. The compound also had an inhibition at 100 µM in data set [1] (10^−4 M) of 43.2 ± 0.861%. This compound also showed an inhibition at 1000 µM in data set [2] (10^−3 M) of 38.5 ± 0.732%. Moreover, 100 µM produced 34.7 ± 0.556% inhibition in data set [2] (10^−4 M).

`Clc1ccc(Sc2ccc(C=NNc3ccccc3)cc2)cc1` [Compound 2k, 1-(4-((4-Chlorophenyl)thio)benzylidene)-2-phenylhydrazine] showed a melting point of 164.4 to 165.7 °C. The same compound showed an inhibition at 1000 µM in data set [1] (10^−3 M) of 29.2 ± 0.672%. In data set [1] (10^−4 M), 100 µM produced 21.5 ± 0.468% inhibition. Moreover, at 1000 µM the inhibition in data set [2] (10^−3 M) was 36.3 ± 0.774%. In data set [2] (10^−4 M), this compound yielded an inhibition at 100 µM of 19 ± 0.825%.

For the compound `COc1ccc(Oc2ccc(C=NNc3ccccc3)cc2)cc1` [Compound 2e, 1-(4-(4-Methoxyphenoxy)benzylidene)-2-phenylhydrazine], the melting point is 170.9 to 174.9 °C. Further, testing at 1000 µM in data set [1] (10^−3 M) gave an inhibition of 32.5 ± 0.844%. In data set [1] (10^−4 M), this compound registered an inhibition at 100 µM of 25 ± 0.425%. Moreover, the inhibition at 1000 µM in data set [2] (10^−3 M) came to 26.5 ± 0.478%. In data set [2] (10^−4 M), this compound displayed an inhibition at 100 µM of 19.4 ± 0.327%.

On to `CN(C)CCCN1CCN(c2ccc(C=NNc3ccccc3)cc2)CC1` [Compound 2n], for which the “MAO-A Inhibition %” value in data set [1] (10^−3 M) was determined as 64.435 ± 1.104%; in data set [1] (10^−4 M), 36.154 ± 0.817%. The “MAO-B Inhibition %” value in data set [2] (10^−3 M) is 40.629 ± 0.933%; in data set [2] (10^−4 M) it was 29.068 ± 0.734%.

The compound `COc1ccc(Sc2ccc(C=NNc3ccccc3)cc2)cc1` [Compound 2f, 1-(4-((4-Methoxyphenyl)thio)benzylidene)-2-phenylhydrazine] showed a melting point of 178.1 to 184.3 °C. Besides, the inhibition at 1000 µM in data set [1] (10^−3 M) is 30.5 ± 0.817%. This compound also returned an inhibition at 100 µM in data set [1] (10^−4 M) of 26.7 ± 0.748%. Further, the inhibition at 1000 µM in data set [2] (10^−3 M) was determined as 33.3 ± 0.833%. Further, the inhibition at 100 µM in data set [2] (10^−4 M) is 21.9 ± 0.416%.

In the case of `Fc1ccc(Oc2ccc(C=NNc3ccccc3)cc2)cc1` [Compound 2g, 1-(4-(4-Fluorophenoxy)benzylidene)-2-phenylhydrazine], the melting point lay in the range of 121.3 to 124.9 °C. The inhibition at 1000 µM in data set [1] (10^−3 M) came out at 54.5 ± 1%. For the same compound, in data set [1] (10^−4 M), the inhibition at 100 µM was 20.4 ± 0.469%. At 1000 µM the inhibition in data set [2] (10^−3 M) was 21.7 ± 0.52%. In data set [2] (10^−4 M), this compound returned an inhibition at 100 µM of 17.1 ± 0.412%.

Consider `C(=NNc1ccccc1)c1ccc(N2CCC(Cc3ccccc3)CC2)cc1` [Compound 2l, 1-(4-(Benzylpiperidine)benzylidene)-2-phenylhydrazine], for which the “MAO-A Inhibition %” value in data set [1] (10^−3 M) is 74.251 ± 1.614%; in data set [1] (10^−4 M) it was 44.828 ± 0.917%. The “MAO-B Inhibition %” value is on record as 45.194 ± 0.692% in data set [2] (10^−3 M) and 28.560 ± 0.629% in data set [2] (10^−4 M).

`COc1ccc(N2CCN(c3ccc(C=NNc4ccccc4)cc3)CC2)cc1` [Compound 2d, 1-(4-(4-(4-Methoxyphenyl)piperazine-1-yl)benzylidene)-2-phenylhydrazine] had a melting point of 141.2 to 150.4 °C. The compound also had an inhibition at 1000 µM in data set [1] (10^−3 M) of 68.6 ± 1.5%. For the same compound, the inhibition at 100 µM in data set [1] (10^−4 M) is 40.2 ± 0.97%. In addition, in data set [2] (10^−3 M), the inhibition at 1000 µM amounted to 39.2 ± 0.863%. Moreover, in data set [2] (10^−4 M), 100 µM produced 30.6 ± 0.613% inhibition.

Take `CN(C)CCN1CCN(c2ccc(C=NNc3ccccc3)cc2)CC1` [Compound 2m]: the “MAO-A Inhibition %” value came out at 68.276 ± 1.048% in data set [1] (10^−3 M) and 39.471 ± 0.719% in data set [1] (10^−4 M). Besides, the entries for the “MAO-B Inhibition %” value in data set [2] (10^−3 M) and in data set [2] (10^−4 M) were 41.072 ± 0.732% and 27.607 ± 0.961%, respectively.

With `C(=NNc1ccccc1)c1ccc(-n2ccnc2)cc1` [Compound 2i, 1-(4-(1-Imidazolyl)benzylidene)-2-phenylhydrazine], the melting point fell in the range of 201.9 to 208.9 °C. This compound returned an inhibition at 1000 µM in data set [1] (10^−3 M) of 40.9 ± 0.9%. The inhibition at 100 µM in data set [1] (10^−4 M) is 18.3 ± 0.618%. In addition, in data set [2] (10^−3 M), 1000 µM produced 38.2 ± 1.09% inhibition. Moreover, the inhibition at 100 µM in data set [2] (10^−4 M) was determined as 30.7 ± 0.707%.

Turning to `Fc1ccc(Sc2ccc(C=NNc3ccccc3)cc2)cc1` [Compound 2h, 1-(4-((4-Fluorophenyl)thio)benzylidene)-2-phenylhydrazine], the melting point fell in the range of 132.3 to 133.9 °C. Testing at 1000 µM in data set [1] (10^−3 M) gave an inhibition of 28.6 ± 0.57%. Besides, testing at 100 µM in data set [1] (10^−4 M) gave an inhibition of 21 ± 0.548%. Moreover, in data set [2] (10^−3 M), 1000 µM produced 30.2 ± 0.574% inhibition. Also, the inhibition at 100 µM in data set [2] (10^−4 M) is 24.1 ± 0.355%.

In the case of `C(=NNc1ccccc1)c1ccc(-n2cncn2)cc1` [Compound 2j, 1-(4-(1H-1,2,4-triazole-1-yl)benzylidene)-2-phenylhydrazine], the melting point was in the range of 127.4 to 132.2 °C. The compound also returned an inhibition at 1000 µM in data set [1] (10^−3 M) of 38.6 ± 0.743%. The compound also returned an inhibition at 100 µM in data set [1] (10^−4 M) of 33 ± 0.66%. In addition, at 1000 µM the inhibition in data set [2] (10^−3 M) was 27.5 ± 0.633%. Testing at 100 µM in data set [2] (10^−4 M) gave an inhibition of 22.1 ± 0.419%.

Consider `O=C(NCCN1CCOCC1)c1ccc(Cl)cc1` [Moclobemide, reference compound], for which, in data set [1] (10^−4 M), the inhibition at 100 µM amounted to 82.1 ± 2.69%. Moreover, the inhibition at 10 µM in data set [1] (10^−5 M) was 60.5 ± 2.56%. Besides, in data set [1] (10^−6 M), at 1 µM the inhibition was 36.2 ± 1.98%. Further, the inhibition at 0.1 µM in data set [1] (10^−7 M) was determined as 22.1 ± 1.34%. The compound also showed an inhibition at 0.01 µM in data set [1] (10^−8 M) of 18.2 ± 0.812%. 0.001 µM produced 14.1 ± 0.725% inhibition in data set [1] (10^−9 M).
